The values below come from US20060293264A1, “STAT3 decoy oligonucleotides and uses therefor” (priority 2004, published 2006).

As usually defined, the IC50 is the midpoint of a concentration-inhibition curve.

One data set concerns p53-responsive element. Briefly: p53-Luciferase reporter gene assay in UM-22B SCCHN cells. Type of data set: cell-based. The following applies: UM-22B p53-Luc, 2 μg transfected, 24 hrs. As for the experimental part:
FIG. 8 depicts the inhibition of reporter gene expression from a p53-responsive element in SCCHN cells. An SCCHN cell line, UM-22B, was used to generate a stable cell line expressing a p53-Luciferase (p53-Luc) reporter gene (The p53-Luc plasmid carrying 14 repeats of p53 transcription recognition sequence: 5'-[…] ID NO: 30)), was obtained from Stratagene, Catalog number: 219085-51). The cells were transfected with 2 μg of the STAT3 decoy or the control mutant decoy. At 24 hrs after transfection, luciferase (Luc) activity was measured and normalized to the total amount of protein according to standard methods.
On the technique in general: A reporter such as luciferase makes a cellular process visible.

In the next data set the test system is GAS-responsive element. Briefly: pGAS-Luc reporter gene assay in UM-22B SCCHN cells. The data set is classed as cell-based. The following applies: UM-22B pGAS-Luc, 2 μg transfected, 24 hrs, IFN-γ stimulation. As for the experimental part: FIG. 9 depicts the inhibition of reporter gene expression from GAS-responsive element in SCCHN cells. An SCCHN cell line, UM-22B, was used to generate a stable cell line expressing a pGAS-Luc reporter gene (pGAS-Luc plasmid carrying 4 repeats of GAS sequence: [NT] ID NO: 31), was obtained from Stratagene, Catalog number: 219091-51). The cells were transfected with 2 μg of the STAT3 decoy or the control mutant decoy. At 24 hrs after transfection, luciferase activity was measured and normalized to the total amount of protein.

A further data set concerns the target T1, STAT1 (Homo sapiens, UniProt P42224).
T1 construct: Nuclear protein extracts of PCI-15B cells, prepared according to standard methods, were used for the EMSA; endogenous in cells; host or cells: PCI-15B cells (nuclear extract)
T1 sequence (P42224 2-750 limits assumed): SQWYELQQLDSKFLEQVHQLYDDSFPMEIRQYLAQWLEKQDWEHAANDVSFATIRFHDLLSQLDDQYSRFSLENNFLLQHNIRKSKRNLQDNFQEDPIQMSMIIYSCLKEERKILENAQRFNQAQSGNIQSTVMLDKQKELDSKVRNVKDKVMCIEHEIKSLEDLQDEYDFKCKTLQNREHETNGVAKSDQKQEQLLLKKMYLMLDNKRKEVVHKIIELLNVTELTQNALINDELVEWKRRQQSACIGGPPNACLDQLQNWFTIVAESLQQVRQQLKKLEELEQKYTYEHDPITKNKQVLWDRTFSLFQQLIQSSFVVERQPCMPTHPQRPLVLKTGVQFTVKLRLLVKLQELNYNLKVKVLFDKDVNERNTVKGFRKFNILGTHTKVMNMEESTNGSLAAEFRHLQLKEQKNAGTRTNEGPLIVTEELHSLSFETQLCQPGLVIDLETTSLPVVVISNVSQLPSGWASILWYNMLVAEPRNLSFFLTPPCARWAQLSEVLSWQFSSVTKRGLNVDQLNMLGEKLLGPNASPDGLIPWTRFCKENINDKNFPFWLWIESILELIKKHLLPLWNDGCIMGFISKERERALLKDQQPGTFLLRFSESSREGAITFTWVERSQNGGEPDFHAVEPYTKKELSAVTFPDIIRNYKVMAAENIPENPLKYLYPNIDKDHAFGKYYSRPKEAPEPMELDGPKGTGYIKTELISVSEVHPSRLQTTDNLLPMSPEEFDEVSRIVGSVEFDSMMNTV
Briefly: EMSA of STAT1 binding to the STAT3 decoy, PCI-15B nuclear extracts. The following applies: supershift. Here is the method: FIG. 10 depicts binding of STAT 1 to the STAT3 decoy in an electrophoretic mobility shift assay (EMSA). Nuclear protein extracts of PCI-15B cells, prepared according to standard methods, were used for the EMSA. The specificity of STAT1 or STAT3 binding to the STAT3 decoy was determined by supershifting with STAT1- or STAT3-specific antibodies, or both. The experiment has been repeated more than 3 times.
A general note: Mobility shift assays separate free from complexed probe on a gel.

For another data set, the system named is PCI-15B cells. Kind of data set: Gossypol dose response, MTT assays and cell counting. Type of data set: cell-based. Conditions: 72 h, day 3 after treatment. Here is the method: In FIG. 7, PCI-15B cells were treated with 0, 0.003, 0.03, 3, and 30 μM gossypol. After 3 days, MTT assays and cell counting experiments were performed. […] Bars indicate standard error. […] The STAT3 decoy will be combined with gossypol to determine the antitumor efficacy of the combination treatment.

In a further data set the target is T2, STAT3 (Homo sapiens, UniProt P40763).
T2 construct: Whole cell extracts were prepared and EMSAs performed on 4% native polyacrylamide gels; endogenous in cells; host or cells: whole cell extracts
T2 sequence (P40763 2-770 limits assumed): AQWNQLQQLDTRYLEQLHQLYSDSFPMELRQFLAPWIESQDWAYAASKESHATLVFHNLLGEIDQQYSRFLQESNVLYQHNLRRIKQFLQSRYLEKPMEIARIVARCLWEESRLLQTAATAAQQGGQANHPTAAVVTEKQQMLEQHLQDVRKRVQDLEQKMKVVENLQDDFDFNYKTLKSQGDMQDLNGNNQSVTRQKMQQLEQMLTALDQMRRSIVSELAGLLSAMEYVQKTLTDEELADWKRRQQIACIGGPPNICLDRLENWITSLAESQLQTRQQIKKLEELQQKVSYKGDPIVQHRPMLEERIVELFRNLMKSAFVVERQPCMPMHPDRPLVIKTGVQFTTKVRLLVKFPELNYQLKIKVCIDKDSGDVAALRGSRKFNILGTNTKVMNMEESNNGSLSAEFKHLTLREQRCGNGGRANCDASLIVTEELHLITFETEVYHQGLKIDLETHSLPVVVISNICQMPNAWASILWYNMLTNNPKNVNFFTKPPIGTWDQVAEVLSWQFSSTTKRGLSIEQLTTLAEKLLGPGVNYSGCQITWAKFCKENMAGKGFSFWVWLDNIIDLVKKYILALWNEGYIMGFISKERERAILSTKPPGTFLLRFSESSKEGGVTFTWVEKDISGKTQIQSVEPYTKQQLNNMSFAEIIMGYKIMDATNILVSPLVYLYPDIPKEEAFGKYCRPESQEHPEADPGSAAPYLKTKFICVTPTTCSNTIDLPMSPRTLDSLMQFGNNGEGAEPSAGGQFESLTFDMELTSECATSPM
Kind of data set: EMSA of STAT3 decoy and derivative decoys, relative binding to STAT3. As for the experimental part: Derivative decoys were identified by electrophoretic mobility shift assay, performed as described herein. Table 1 describes a number of STAT3 decoy derivatives along with their relative binding to STAT3.
Electrophoretic Mobility Shift Assay (EMSA). Whole cell extracts were prepared and EMSAs performed on 4% native polyacrylamide gels as described (Xi, S., et al. J Biol Chem, 278: 31574-31583, 2003 and Wong, P., etal. Mol Cell Biol, 14. 914-922, 1994). STAT3 activation was evaluated by using binding reactions with 20 μg of extracted protein, and radiolabeled high-affinity serum inducible element (hSIE) duplex oligonucleotide (Wagner et al., EMBO J. 9(13):4477-4484 (1990)). Quantification of the STAT3 signal was performed by scanning the SIF-A band using a Molecular Dynamics Personal Densitometer SI and IMAGEQUANT software. […] For supershift experiments, extracts were preincubated with STAT3 polyclonal antibody (C-20, Santa Cruz Biotechnology). Gel shift bands were quantified by densitometry and the Molecular Analyst software (AlphaDigidoc 1000, Alpha-Innotech) with normalization of each band to the positive control lysate run on that gel as described previously for STAT3 activation determinations (Grandis, J. R. et al. Proc Natl Acad Sci USA, 97: 4227-4232., 2000).

For “mutant control decoy: double-stranded oligonucleotide 5′-CATTTCCCTTAAATC-3′, 3′-GTAAAGGGAATTTAG-5′; same sequence as Mutant 3 of Table 1 [reference compound]”, the p53 reporter activity entry with p53-responsive element is on record as “not”. The “reporter gene expression from a GAS-responsive element (STAT1 reporter activity)” value in the data set with GAS-responsive element is given as “not”. In the data set with STAT1, the “binding to STAT1” value was “not”.
`Cc1cc2c(C(C)C)c(O)c(O)c(C=O)c2c(O)c1-c1c(C)cc2c(C(C)C)c(O)c(O)c(C=O)c2c1O` [gossypol, 2,2′-bis-(Formyl-1,6,7-trihydroxy-5-isopropyl-3-methylnaphthalene)]: the concentration for half-maximal inhibition (IC50) in the data set on PCI-15B cells stood at 297 nM.

B1: longer sequence: 5′-AGCTTGTCGACATTTCCCGTAAATCGTCGAG-3′, 3′-…-5′; longer decoy initially examined (nucleic acid, listed as Homo sapiens)
sense: AGCTTGTCGACATTTCCCGTAAATCGTCGAG
antisense: CTCGACGATTTACGGGAAATGTCGACAAGCT
modifications: listed as DNA, chemistry not given here
notes: longer decoy initially examined
Consider B1, for which the “blocking STAT3 activation” value with STAT3 is “effective”.
